Measured values reported in patent US20250108038A1 (priority 2023, published 2025).
“And” between values parts separate entries of the source, which are not always exact repeats. Equal entries are not always repeated.

Assay: Pharmacokinetics after single oral administration to beagle dogs
Type: in vivo
Settings: for plasma concentration of Compound I-17/I-19: single PO 10 mg/kg; for plasma concentration of Compound I-17/I-19 (as titled): single PO 80 mg/kg (as titled)
Experimental: The concentrations of the analytes in the plasma were quantified by liquid chromatography tandem mass spectrometry (LC-MS/MS).
The bioanalytical assay provided a lower limit of quantification (LLOQ) of 1.0 ng/mL and an upper limit of quantification (ULOQ) of 3000 ng/mL for all the analytes. The data of plasma concentration vs. time were analyzed using Phoenix WinNonlin 8.3 to determine the PK properties of the analytes.
The test articles were administered orally by gavage. The nominal dose volume was 5 mL/kg for both analogs.
The observation included appearance, behavior, morbidity and mortality.
Approximately 0.5 mL blood was collected at each scheduled time point from the peripheral veins.
The plasma samples were placed in microcentrifuge tubes and stored at −70+10° C. until analysis.

[1] = oral 10 mg/kg, female dogs, 10 mg/kg

Compound: CC(C)/C=C/COC1(c2ccc(Cl)cc2)c2ccccc2C2=NCCN21 (stereo not shown) [Compound I-17]
- Tmax of the analog (Compound I-17/I-19) (oral 10 mg/kg, female dogs): 1.5 hour
- AUC0-last of the analog (Compound I-17/I-19) [1]: 826 ng·h/mL and 836 ng·h/mL
- MRT0-last of the analog (Compound I-17/I-19) [1]: 4.01 hours and 2.47 hours
- Cmax of the analog (Compound I-17/I-19) (oral 10 mg/kg, male dogs): 151 ng/mL
- T1/2 of the analog (Compound I-17/I-19) (oral 10 mg/kg, male dogs): 4.39 hours
- Tmax of the analog (Compound I-17/I-19) (oral 10 mg/kg, male dogs): 1 hour
- MRT0-last of the analog (Compound I-17/I-19) (oral 10 mg/kg, male dogs, 10 mg/kg): 2.74 hours and 2.30 hours
- plasma concentration of Compound I-17/I-19 (0.500 h, female individual, 10 mg/kg): 128 ng/mL and 106 ng/mL
- plasma concentration of Compound I-17/I-19 (0.500 h, female mean): 117 ng/mL
- plasma concentration of Compound I-17/I-19 (0.500 h, male individual, 10 mg/kg): 73.5 ng/mL and 176 ng/mL
- plasma concentration of Compound I-17/I-19 (0.500 h, male mean): 125 ng/mL
- plasma concentration of Compound I-17/I-19 ([…] h, female individual, 10 mg/kg): 293 ng/mL and 236 ng/mL
- plasma concentration of Compound I-17/I-19 ([…] h, female mean): 265 ng/mL
- plasma concentration of Compound I-17/I-19 ([…] h, male individual, 10 mg/kg): 89.0 ng/mL and 212 ng/mL
- plasma concentration of Compound I-17/I-19 ([…] h, male mean): 151 ng/mL
- plasma concentration of Compound I-17/I-19 (2.00 h, female individual, 10 mg/kg): 164 ng/mL and 252 ng/mL
- plasma concentration of Compound I-17/I-19 (2.00 h, female mean): 208 ng/mL
- plasma concentration of Compound I-17/I-19 (2.00 h, male individual, 10 mg/kg): 51.0 ng/mL and 101 ng/mL
- plasma concentration of Compound I-17/I-19 (2.00 h, male mean): 75.8 ng/mL
- plasma concentration of Compound I-17/I-19 (4.00 h, female individual, 10 mg/kg): 43.0 ng/mL and 77.4 ng/mL
- plasma concentration of Compound I-17/I-19 (4.00 h, female mean): 60.2 ng/mL
- plasma concentration of Compound I-17/I-19 (4.00 h, male individual, 10 mg/kg): 11.2 ng/mL and 26.5 ng/mL
- plasma concentration of Compound I-17/I-19 (4.00 h, male mean): 18.9 ng/mL
- plasma concentration of Compound I-17/I-19 (6.00 h, female individual, 10 mg/kg): 20.8 ng/mL and 28.2 ng/mL
- plasma concentration of Compound I-17/I-19 (6.00 h, female mean): 24.5 ng/mL
- plasma concentration of Compound I-17/I-19 (6.00 h, male individual, 10 mg/kg): 6.77 ng/mL and 10.2 ng/mL
- plasma concentration of Compound I-17/I-19 (6.00 h, male mean): 8.47 ng/mL
- plasma concentration of Compound I-17/I-19 (8.00 h, female individual, 10 mg/kg): 13.6 ng/mL and 15.0 ng/mL
- plasma concentration of Compound I-17/I-19 (8.00 h, female mean): 14.3 ng/mL
- plasma concentration of Compound I-17/I-19 (8.00 h, male individual, 10 mg/kg): 4.57 ng/mL and 8.39 ng/mL
- plasma concentration of Compound I-17/I-19 (8.00 h, male mean): 6.48 ng/mL
- plasma concentration of Compound I-17/I-19 (24.0 h, female individual, 10 mg/kg): 2.29 ng/mL and 3.32 ng/mL
- plasma concentration of Compound I-17/I-19 (24.0 h, female mean): 2.81 ng/mL
- plasma concentration of Compound I-17/I-19 (24.0 h, male individual): 1.16 ng/mL
- plasma concentration of Compound I-17/I-19 (24.0 h, male individual, 10 mg/kg): BQL
- plasma concentration of Compound I-17/I-19 (as titled) (0.500 h, female individual): 5.44 ng/mL
- plasma concentration of Compound I-17/I-19 (as titled) (0.500 h, female individual, 80 mg/kg): BQL
- plasma concentration of Compound I-17/I-19 (as titled) (0.500 h, male individual, 80 mg/kg): 7.45 ng/mL and 13.8 ng/mL
- plasma concentration of Compound I-17/I-19 (as titled) (0.500 h, male mean): 10.6 ng/mL
- plasma concentration of Compound I-17/I-19 (as titled) (2.00 h, female individual, 80 mg/kg): 33.0 ng/mL and 26.4 ng/mL
- plasma concentration of Compound I-17/I-19 (as titled) (2.00 h, female mean): 29.7 ng/mL
- plasma concentration of Compound I-17/I-19 (as titled) (2.00 h, male individual, 80 mg/kg): 25.9 ng/mL and 31.6 ng/mL
- plasma concentration of Compound I-17/I-19 (as titled) (2.00 h, male mean): 28.8 ng/mL
- plasma concentration of Compound I-17/I-19 (as titled) (4.00 h, female individual, 80 mg/kg): 35.5 ng/mL and 25.4 ng/mL
- plasma concentration of Compound I-17/I-19 (as titled) (4.00 h, female mean): 30.5 ng/mL
- plasma concentration of Compound I-17/I-19 (as titled) (4.00 h, male individual, 80 mg/kg): 25.6 ng/mL and 29.0 ng/mL
- plasma concentration of Compound I-17/I-19 (as titled) (4.00 h, male mean): 27.3 ng/mL
- plasma concentration of Compound I-17/I-19 (as titled) (6.00 h, female individual, 80 mg/kg): 22.9 ng/mL and 18.1 ng/mL
- plasma concentration of Compound I-17/I-19 (as titled) (6.00 h, female mean): 20.5 ng/mL
- plasma concentration of Compound I-17/I-19 (as titled) (6.00 h, male individual, 80 mg/kg): 14.2 ng/mL and 16.7 ng/mL
- plasma concentration of Compound I-17/I-19 (as titled) (6.00 h, male mean): 15.4 ng/mL
- plasma concentration of Compound I-17/I-19 (as titled) (8.00 h, female individual, 80 mg/kg): 21.8 ng/mL and 14.4 ng/mL
- plasma concentration of Compound I-17/I-19 (as titled) (8.00 h, female mean): 18.1 ng/mL
- plasma concentration of Compound I-17/I-19 (as titled) (8.00 h, male individual, 80 mg/kg): 14.9 ng/mL and 13.7 ng/mL
- plasma concentration of Compound I-17/I-19 (as titled) (8.00 h, male mean): 14.3 ng/mL
- plasma concentration of Compound I-17/I-19 (as titled) (24.0 h, female individual, 80 mg/kg): 4.17 ng/mL and 3.23 ng/mL
- plasma concentration of Compound I-17/I-19 (as titled) (24.0 h, female mean): 3.70 ng/mL
- plasma concentration of Compound I-17/I-19 (as titled) (24.0 h, male individual, 80 mg/kg): 2.20 ng/mL and 2.28 ng/mL
- plasma concentration of Compound I-17/I-19 (as titled) (24.0 h, male mean): 2.24 ng/mL
- plasma concentration of Compound I-17/I-19 (as titled) ([…] h, female mean): 15.9 ng/mL
- plasma concentration of Compound I-17/I-19 (as titled) ([…] h, male mean): 22.2 ng/mL
